“And” between values parts separate entries of the source, which are not always exact repeats. Identical values can stand only once. Inconclusive results and toxic doses are left out.
Tested on: P388 leukemia ip, CD2F1 mice, survival T/C
Assay: NCI In Vivo Anticancer Drug Screen. Data for tumor model P388 Leukemia (intraperitoneal) in CD2F1 (CDF1) mice
Details: endpoint: median survival time, higher = longer survival
Summary of the method: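 Mice carrying the transplanted tumor received test compound or vehicle. Survival was recorded in each group, and the value is the treated-group measurement divided by that of the vehicle-treated control group.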

[1] = dose: 50.0 mg/kg/injection, schedule: Q01DX009 (ip), vehicle: saline
[2] = dose: 100.0 mg/kg/injection, schedule: Q01DX009 (ip), vehicle: saline
[3] = dose: 200.0 mg/kg/injection, schedule: Q01DX009 (ip), vehicle: saline
[4] = dose: 50.0 mg/kg/injection, schedule: Q01DX009 (ip), vehicle: Klucel (hydroxypropylcellulose) (HPC)
[5] = dose: 25.0 mg/kg/injection, schedule: Q01DX009 (ip), vehicle: saline with Tween-80
[6] = dose: 50.0 mg/kg/injection, schedule: Q01DX009 (ip), vehicle: saline with Tween-80
[7] = dose: 50.0 mg/kg/injection, schedule: Q01DX005 (ip), vehicle: saline with Tween-80
[8] = dose: 100.0 mg/kg/injection, schedule: Q01DX005 (ip), vehicle: saline with Tween-80
[9] = dose: 200.0 mg/kg/injection, schedule: Q01DX005 (ip), vehicle: saline with Tween-80

CCCCCCCC(C)c1cc(N)c(C)cc1[N+](=O)[O-] (stereo not given)
T/C (dose: 25.0 mg/kg/injection, schedule: Q04DX002 (ip), vehicle: Klucel (hydroxypropylcellulose) (HPC)): 98 % of control | T/C (dose: 50.0 mg/kg/injection, schedule: Q04DX002 (ip), vehicle: Klucel (hydroxypropylcellulose) (HPC)): 89 % of control

COc1cc([N+](=O)[O-])ccc1N=Cc1cccs1
T/C [1]: 97 % of control | T/C [2]: 93 % of control | T/C [3]: 101 % of control

NC(=O)c1cc([N+](=O)[O-])cnc1Sc1ncccn1
T/C (dose: 12.5 mg/kg/injection, schedule: Q01DX009 (ip), vehicle: Klucel (hydroxypropylcellulose) (HPC)): 110 % of control | T/C (dose: 25.0 mg/kg/injection, schedule: Q01DX009 (ip), vehicle: Klucel (hydroxypropylcellulose) (HPC)): 118 % of control | T/C [4]: 111 % of control and 114 % of control

CN=C(N)N/N=C(\C)c1ccc2ccc3ccccc3c2c1
T/C (dose: 50.0 mg/kg/injection, schedule: Q04DX002 (ip), vehicle: saline with Tween-80): 105 % of control

COc1ccc2c(c1[N+](=O)[O-])CCCC(Br)(Br)C2=O
T/C [4]: 107 % of control | T/C (dose: 100.0 mg/kg/injection, schedule: Q01DX009 (ip), vehicle: Klucel (hydroxypropylcellulose) (HPC)): 107 % of control | T/C (dose: 200.0 mg/kg/injection, schedule: Q01DX009 (ip), vehicle: Klucel (hydroxypropylcellulose) (HPC)): 108 % of control

CC(C)c1ccc(O)c(O)c1
T/C [5]: 113 % of control | T/C [6]: 113 % of control | T/C (dose: 100.0 mg/kg/injection, schedule: Q01DX009 (ip), vehicle: saline with Tween-80): 111 % of control

Nc1ccc(Cn2ccc3c4c(N)nc(N)nc4ccc32)cc1
T/C (dose: 1.25 mg/kg/injection, schedule: Q01DX009 (ip), vehicle: saline with Tween-80): 106 % of control and 117 % of control | T/C (dose: 2.5 mg/kg/injection, schedule: Q01DX009 (ip), vehicle: saline with Tween-80): 110 % of control and 111 % of control and 112 % of control | T/C (dose: 5.0 mg/kg/injection, schedule: Q01DX009 (ip), vehicle: saline with Tween-80): 121 % of control | T/C (dose: 10.0 mg/kg/injection, schedule: Q01DX009 (ip), vehicle: saline with Tween-80): 151 % of control and 186 % of control | T/C (dose: 20.0 mg/kg/injection, schedule: Q01DX009 (ip), vehicle: saline with Tween-80): 182 % of control | T/C (dose: 40.0 mg/kg/injection, schedule: Q01DX009 (ip), vehicle: saline with Tween-80): 105 % of control

CCSc1ccc([N+](=O)[O-])c2c(SCC)c3ccccc3nc12
T/C [7]: 92 % of control | T/C [8]: 95 % of control | T/C [9]: 99 % of control

CC(C)[CH2][Sn](=[O])[c]1ccccc1
T/C (dose: 0.39 mg/kg/injection, schedule: Q01DX009 (ip), vehicle: saline): 88 % of control | T/C (dose: 0.79 mg/kg/injection, schedule: Q01DX009 (ip), vehicle: saline): 87 % of control | T/C (dose: 1.56 mg/kg/injection, schedule: Q01DX009 (ip), vehicle: saline): 95 % of control

Cc1c(N=Nc2cccc(F)c2)c(-c2ccccc2)nn1C(N)=S
T/C (dose: 12.5 mg/kg/injection, schedule: Q01DX005 (ip), vehicle: saline with Tween-80): 95 % of control | T/C (dose: 25.0 mg/kg/injection, schedule: Q01DX005 (ip), vehicle: saline with Tween-80): 95 % of control | T/C [7]: 101 % of control

COP(=O)(OC)C(=[N+]=[N-])P(=O)(OC(C)C)OC(C)C
T/C (dose: 100.0 mg/kg/injection, schedule: Q01DX001 (ip), vehicle: saline): 99 % of control | T/C (dose: 200.0 mg/kg/injection, schedule: Q01DX001 (ip), vehicle: saline): 101 % of control | T/C (dose: 400.0 mg/kg/injection, schedule: Q01DX001 (ip), vehicle: saline): 100 % of control

COc1ccc(C(=O)Cc2ccccc2C#N)cc1
T/C (dose: 100.0 mg/kg/injection, schedule: Q04DX002 (ip), vehicle: Klucel (hydroxypropylcellulose) (HPC)): 100 % of control | T/C (dose: 200.0 mg/kg/injection, schedule: Q04DX002 (ip), vehicle: Klucel (hydroxypropylcellulose) (HPC)): 99 % of control | T/C (dose: 400.0 mg/kg/injection, schedule: Q04DX002 (ip), vehicle: Klucel (hydroxypropylcellulose) (HPC)): 99 % of control

Cc1cc(O)c(-c2c(-c3ccccc3C(=O)O)oc3cc(C)c(C)cc23)cc1C
T/C [1]: 89 % of control | T/C [2]: 89 % of control | T/C [3]: 90 % of control

C1CC[N+]2(CC1)CCCCC2
T/C (dose: 6.25 mg/kg/injection, schedule: Q01DX009 (ip), vehicle: saline): 100 % of control | T/C (dose: 12.5 mg/kg/injection, schedule: Q01DX009 (ip), vehicle: saline): 100 % of control | T/C (dose: 25.0 mg/kg/injection, schedule: Q01DX009 (ip), vehicle: saline): 108 % of control | T/C [1]: 98 % of control

COc1cccc2c1C(=O)c1c(O)c3c(c(O)c1C2=O)C[C@@](O)(/C(C)=N/NC(=O)c1ccc(Cl)c(Cl)c1)C[C@@H]3OC1CC(N)C(O)C(C)O1 (stereo not given in full)
T/C (dose: 0.12 mg/kg/injection, schedule: Q01DX009 (ip), vehicle: water): 117 % of control | T/C (dose: 0.5 mg/kg/injection, schedule: Q01DX009 (ip), vehicle: water): 157 % of control | T/C (dose: 1.0 mg/kg/injection, schedule: Q01DX009 (ip), vehicle: water): 166 % of control | T/C (dose: 2.0 mg/kg/injection, schedule: Q01DX009 (ip), vehicle: water): 155 % of control and 175 % of control | T/C (dose: 4.0 mg/kg/injection, schedule: Q01DX009 (ip), vehicle: water): 163 % of control | T/C (dose: 5.0 mg/kg/injection, schedule: Q01DX001 (ip), vehicle: water): 159 % of control | T/C (dose: 10.0 mg/kg/injection, schedule: Q01DX001 (ip), vehicle: water): 168 % of control | T/C (dose: 20.0 mg/kg/injection, schedule: Q01DX001 (ip), vehicle: water): 123 % of control

C=C1OC(C2CCCCC2)=C(C(=O)OCC)C1C (stereo not given)
T/C (dose: 100.0 mg/kg/injection, schedule: Q01DX001 (ip), vehicle: saline with Tween-80): 100 % of control | T/C (dose: 200.0 mg/kg/injection, schedule: Q01DX001 (ip), vehicle: saline with Tween-80): 94 % of control | T/C (dose: 400.0 mg/kg/injection, schedule: Q01DX001 (ip), vehicle: saline with Tween-80): 100 % of control

c1ccc(N=c2nc(Nc3ccccc3)ss2)cc1
T/C [7]: 94 % of control | T/C [8]: 86 % of control | T/C [9]: 90 % of control

CCOc1ccc(/C=C(\C(=O)c2ccccc2)S(=O)(=O)c2ccc(OC)cc2)cc1OC
T/C [7]: 92 % of control | T/C [8]: 92 % of control

N#CCCn1nc(Sc2ccccc2)c(=O)[nH]c1=O
T/C [7]: 95 % of control | T/C (dose: 60.0 mg/kg/injection, schedule: Q01DX005 (ip), vehicle: saline with Tween-80): 100 % of control | T/C [8]: 94 % of control | T/C (dose: 120.0 mg/kg/injection, schedule: Q01DX005 (ip), vehicle: saline with Tween-80): 100 % of control | T/C [9]: 94 % of control | T/C (dose: 240.0 mg/kg/injection, schedule: Q01DX005 (ip), vehicle: saline with Tween-80): 95 % of control

COc1cc(NC(C)CCCN)c2ncccc2c1Oc1ccc(Cl)cc1 (stereo not given)
T/C (dose: 12.5 mg/kg/injection, schedule: Q01DX009 (ip), vehicle: saline with Tween-80): 91 % of control | T/C [5]: 90 % of control | T/C [6]: 94 % of control

CCC12CN3CCc4c([nH]c5ccccc45)C(C(=O)OC)(c4cc5c(cc4OC)N(C)C4C(O)(C(=O)OC)C(OC(C)=O)C6(CC)C=CCN7CCC54C76)CC(C3=O)C1O2 (stereo not given)
T/C (dose: 4.0 mg/kg/injection, schedule: Q01DX001 (ip), vehicle: water): 118 % of control | T/C (dose: 32.0 mg/kg/injection, schedule: Q01DX001 (ip), vehicle: water): 116 % of control | T/C (dose: 64.0 mg/kg/injection, schedule: Q01DX001 (ip), vehicle: water): 169 % of control

O=S(=O)(OC(=C(c1ccccc1)c1ccccc1)c1ccccc1)C(F)(F)F
T/C (dose: 50.0 mg/kg/injection, schedule: Q01DX009 (ip), vehicle: olive oil, sesame oil, peanut oil): 99 % of control | T/C (dose: 100.0 mg/kg/injection, schedule: Q01DX009 (ip), vehicle: olive oil, sesame oil, peanut oil): 107 % of control | T/C (dose: 200.0 mg/kg/injection, schedule: Q01DX009 (ip), vehicle: olive oil, sesame oil, peanut oil): 112 % of control

O=C1CSc2ncccc2N1c1ccc([N+](=O)[O-])cn1
T/C (dose: 50.0 mg/kg/injection, schedule: Q01DX009 (ip), vehicle: suspension in saline): 105 % of control | T/C [2]: 100 % of control | T/C (dose: 100.0 mg/kg/injection, schedule: Q01DX009 (ip), vehicle: suspension in saline): 101 % of control | T/C [3]: 96 % of control | T/C (dose: 200.0 mg/kg/injection, schedule: Q01DX009 (ip), vehicle: suspension in saline): 101 % of control

CC(=O)OCC1OC(OC(C)=O)C(NC(=S)NCC(=O)c2ccc(C)cc2)C(OC(C)=O)C1OC(C)=O (stereo not given)
T/C [7]: 99 % of control | T/C [8]: 100 % of control | T/C [9]: 101 % of control

Nc1nnc2n(N)cnn12
T/C (dose: 100.0 mg/kg/injection, schedule: Q04DX002 (ip), vehicle: water): 114 % of control | T/C (dose: 200.0 mg/kg/injection, schedule: Q04DX002 (ip), vehicle: water): 109 % of control | T/C (dose: 400.0 mg/kg/injection, schedule: Q04DX002 (ip), vehicle: water): 106 % of control

Source: PubChem BioAssay AID330 (DTP/NCI, 2004)
